27 molecules from patent US12522593B2, “Azacycloalkyl carbonyl cyclic amine compound” (Alivexis, Inc., priority 2022, dated 2026) can be followed below.

For one test, the target named is human recombinant CTSC (Homo sapiens (Human), UniProt P53634). As to the kind of experiment: CTSC inhibition assay (in vitro), fluorescent substrate GF-AFC. It is filed as biochemical. The settings on record: 30 μmol/L GF-AFC, pH 5.0, 25° C. As to the method: 1. CTSC Inhibition Assay (In Vitro)
A test specimen was evaluated by a CTSC inhibition assay using a fluorescent substrate GF-AFC (Gly-Phe-7-Amino-4-trifluoromethylcoumarin, MP Biomedical, 03AFC03325). Since the GF-AFC is converted by CTSC to aminotrifluoromethylcoumarin having a specific fluorescence wavelength and the produced amount is proportional to CTSC activity, quantitative analysis was performed by measuring a fluorescence intensity with a plate reader. CTSC inhibition assay for each compound was performed using a polystyrene-made non-adhesive surface-treated black 384 well plate under the following conditions.
A human recombinant CTSC (R&D systems, 1071-CY) was dissolved in a CTSC active cocktail (20 ng/mL of human recombinant cathepsin L (R&D systems, 952-CY, 25 mmol/L MES/NaOH (pH: 6.0), 5 mmol/L dithiothreitol (DTT)) so as to be 100 ng/mL and incubated at 18° C. for 30 minutes. The solution was diluted with a CTSC assay buffer (50 mmol/L MES/NaOH (pH: 5.0), 50 mmol/L NaCl, 0.001% Triton X-100, mmol/L DTT) so as to be 2 ng/mL in a case of performing CTSC inhibition assay.
The test specimen was dissolved in dimethylsulfoxide (DMSO) at 10 mmol/L to prepare a stock solution. In a case where a solution in which the stock solution was diluted 15-fold with DMSO was used as the maximum evaluation concentration (0.667 mmol/L), 5-fold dilution was repeated in DMSO from the solution to prepare a serially diluted solution. 248.8 μL of the CTSC assay buffer was added to 1.12 μL of the serially diluted sample prepared in the DMSO to prepare a solution of a CTSC inhibition assay compound.
The final composition of the CTSC inhibition assay mixture was 0.66 ng/mL activated CTSC, 50 mmol/L MES/NaOH (pH: 5.0), 50 mmol/L NaCl, 0.001% Triton X-100, 5 mmol/L DTT, 30 μmol/L GF-AFC, and 0.15% DMSO, and the procedure was as follows. That is, 4 μL of the compound solution and 4 μL of the 2 ng/mL activated CTSC solution were mixed with each other in a 384 well plate and incubated at 25° C. for 30 minutes. Thereafter, 4 μL of the GF-AFC solution dissolved in the CTSC assay buffer was added to the mixture so as to be 90 μmol/L. After mixing to be uniform, a fluorescence emission intensity at 505 nm in a case of being excited at 390 nm after incubating at 25° C. for 1 hour was measured with a plate reader. A 4-parameter regression analysis was performed with GraphPad Prism (manufactured by GraphPad Software) from a plot of the fluorescence intensity at 505 nm and the sample concentration, and an IC50 value was calculated.
Results of test compounds of Formula (I) are shown in Table 1 as IC50 (nM) values for which 50% inhibition concentration is calculated based on CTSC inhibition (%). In the table, Ex indicates an example number.

The next test concerns the target CTSC in U937 cells (Homo sapiens (Human), UniProt P53634). As to the kind of experiment: Intracellular CTSC inhibition assay (in vitro), LLOMe-induced cell death in U937 cells. The settings on record: 3 hours culture, CellTiter-Glo. It is filed as cell-based. As for the experimental part:
2. Intracellular CTSC Inhibition Assay (In Vitro)
A test specimen was evaluated by a degree of cell death in a case where a substrate LLOMe (L-Leucyl-L-Leucine methyl ester, hydrobromide salt, Sigma, 555045152) was added to U937 cells. The LLOMe is taken up into the cells by endocytosis and cleaved by CTSC. A product thereof induces lysosomal damage in cells and causes cell death in leukocytes and the like. Therefore, since the degree of cell death correlates with an amount of degradation of LLOMe, that is, with CTSC activity, by quantitatively analyzing the cell death, CTSC inhibitory activity of the test specimen in the cell was determined. CTSC inhibition assay was performed using a polystyrene-made white 384 well plate.
As the test specimen, a stock solution dissolved in DMSO was prepared so as to be 0.2 mmol/L, and in a case where a solution in which the stock solution was diluted 50-fold with a RPMI-1640 medium including 10% FBS was used as the maximum evaluation concentration (4000 nmol/L), a serially diluted solution was prepared by diluting the solution 3-fold with the medium. Thereafter, a 4-fold concentrated test specimen solution with the target final concentration was prepared.
U937 cells were cultured in a RPMI-1640 medium including 10% FBS, and diluted to prepare 90,000 cells/mL of cell suspension on the day of assay. 10 μL of the cell suspension was seeded per well. Next, 10 μL of the test specimen solution having a concentration 4 times the target final concentration was added thereto, and the mixture was allowed to stand for 30 minutes. Thereafter, 20 μL of a 300 μmol/L LLOMe solution dissolved in a RPMI-1640 medium including 10% FBS was added thereto, and the cells were cultured for 3 hours. After completion of the culture, 40 μL of CellTiter-Glo (registered trademark) reagent (Promega, G7570) was added to each well and mixed. After 15 minutes, 20 μL of the reaction solution in each well was transferred to a white 384 well plate, and a chemiluminescence intensity was measured with a plate reader. A 4-parameter regression analysis was performed with GraphPad Prism (manufactured by GraphPad Software) from a plot of the luminescence intensity and the sample concentration, and an IC50 value was calculated.
Results of test compounds of Formula (1) are shown in Table 2 as IC50 (nM) values for which 50% inhibition concentration is calculated based on CTSC inhibition (%). In the table, Ex indicates an example number.

Sequence of CTSC in U937 cells (P53634 25-463): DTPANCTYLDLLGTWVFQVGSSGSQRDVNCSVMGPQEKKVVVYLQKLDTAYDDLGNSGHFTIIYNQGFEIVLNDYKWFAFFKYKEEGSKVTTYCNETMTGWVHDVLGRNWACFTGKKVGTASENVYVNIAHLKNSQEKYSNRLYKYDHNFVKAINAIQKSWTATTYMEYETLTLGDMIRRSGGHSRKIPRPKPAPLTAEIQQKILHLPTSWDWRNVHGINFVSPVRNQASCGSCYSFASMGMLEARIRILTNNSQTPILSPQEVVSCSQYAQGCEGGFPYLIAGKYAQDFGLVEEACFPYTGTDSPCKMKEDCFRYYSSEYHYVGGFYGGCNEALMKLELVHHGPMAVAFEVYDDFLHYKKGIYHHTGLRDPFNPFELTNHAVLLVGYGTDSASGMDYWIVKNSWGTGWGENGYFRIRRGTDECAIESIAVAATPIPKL
Sequence of human recombinant CTSC (P53634 25-134): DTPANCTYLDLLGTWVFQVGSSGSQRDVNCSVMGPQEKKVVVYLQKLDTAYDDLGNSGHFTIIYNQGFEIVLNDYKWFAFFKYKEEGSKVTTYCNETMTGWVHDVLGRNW
Sequence of human recombinant CTSC (P53634 231-394): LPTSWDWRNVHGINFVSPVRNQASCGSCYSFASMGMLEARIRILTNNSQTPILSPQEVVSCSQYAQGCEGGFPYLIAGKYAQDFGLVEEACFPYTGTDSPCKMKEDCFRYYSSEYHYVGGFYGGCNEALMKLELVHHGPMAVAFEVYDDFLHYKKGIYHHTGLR
Sequence of human recombinant CTSC (P53634 395-463): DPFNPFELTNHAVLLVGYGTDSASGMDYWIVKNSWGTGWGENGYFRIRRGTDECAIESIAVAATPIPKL

On to `CC1(C)CN[C@H](C(=O)N2CCC(c3nc(C4CCC(F)(F)CC4)no3)(C(F)(F)F)CC2)C[C@H]1O` [Example 57], for which the IC50 (as a rule, the concentration that inhibits the measured activity by half) amounted to 3.57 nM on human recombinant CTSC and 0.55 nM on CTSC in U937 cells.

Consider `CC(C)C1(c2noc(C3CCC3)n2)CCN(C(=O)[C@@H]2C[C@@H](O)C3(CCC3)CN2)CC1` [Example 58], for which the IC50 on human recombinant CTSC turned out to be 2.55 nM; against CTSC in U937 cells it was 0.56 nM.

For the molecule `O=C([C@@H]1C[C@@H](O)C2(CCC2)CN1)N1CCC(c2noc(C3CCCCO3)n2)(C(F)(F)F)CC1` (stereo partly drawn) [Example 59], the figures for the IC50 on human recombinant CTSC and at CTSC in U937 cells were 3.61 nM and 0.7 nM, respectively.

Take `O=C([C@@H]1C[C@@H](O)C2(CCC2)CN1)N1CCC(c2noc(C3CCCOC3)n2)(C(F)(F)F)CC1` (stereo partly drawn) [Example 60]: the IC50 on human recombinant CTSC came to 4.09 nM; against CTSC in U937 cells, 1.39 nM.

`O=C([C@@H]1C[C@@H](O)C2(CCC2)CN1)N1CCC(c2noc(C3CCOCC3)n2)(C(F)(F)F)CC1` [Example 61]: the IC50 on human recombinant CTSC worked out at 5.72 nM; at CTSC in U937 cells it was 1.75 nM.

Turning to `O=C([C@@H]1C[C@@H](O)C2(CCC2)CN1)N1CCC(c2noc(C3CCCO3)n2)(C(F)(F)F)CC1` (stereo partly drawn) [Example 62], the figures for the IC50 on human recombinant CTSC and at CTSC in U937 cells were 6.39 nM and 1.62 nM, respectively.

For the molecule `O=C([C@@H]1C[C@@H](O)C2(CCC2)CN1)N1CCC(c2noc(C3CCC(F)(F)CO3)n2)(C(F)(F)F)CC1` (stereo partly drawn) [Example 63, (4-(5-(5,5-Difluorotetrahydro-2H-pyran-2-yl)-1,2,4-oxadiazol-3-yl)-4-(trifluoromethyl)piperidin-1-yl)((7S,9R)-9-hydroxy-6-azaspiro[3.5]nonan-7-yl)methanone], the IC50 on human recombinant CTSC was 1.85 nM; against CTSC in U937 cells, 1.01 nM.

Turning to `O=C([C@@H]1C[C@@H](O)C2(CCC2)CN1)N1CCC(c2noc(C3CCC(F)(F)CO3)n2)(C(F)(F)F)CC1` (stereo partly drawn) [Example 64, (4-(5-(5,5-Difluorotetrahydro-2H-pyran-2-yl)-1,2,4-oxadiazol-3-yl)-4-(trifluoromethyl)piperidin-1-yl)((7S,9R)-9-hydroxy-6-azaspiro[3.5]nonan-7-yl)methanone], the IC50 on human recombinant CTSC is 0.69 nM; against CTSC in U937 cells, 0.74 nM.

In the case of `O=C([C@@H]1C[C@@H](O)C2(CCC2)CN1)N1CCC(c2nc(C3CC(F)(F)C3)no2)(N2CCOCC2)CC1` [Example 65], the IC50 on human recombinant CTSC was determined as 4.15 nM; on CTSC in U937 cells it was 30.1 nM.

As to `O=C([C@@H]1C[C@@H](O)C2(CCC2)CN1)N1CCC(c2nnn(C3CCC(F)(F)CC3)n2)(C(F)(F)F)CC1` [Example 66], the IC50 at human recombinant CTSC was 1.05 nM; on CTSC in U937 cells it was 0.46 nM.

Consider `O=C([C@@H]1C[C@@H](O)C2(CCC2)CN1)N1CCC(c2nnn(C3CC(F)(F)C3)n2)(C(F)(F)F)CC1` [Example 67, (4-(2-(3,3-Difluorocyclobutyl)-2H-tetrazol-5-yl)-4-(trifluoromethyl)piperidin-1-yl)((7S,9R)-9-hydroxy-6-azaspiro[3.5]nonan-7-yl)methanone], for which the values for the IC50 at human recombinant CTSC and on CTSC in U937 cells were 3.25 nM and 1.41 nM, respectively.

Regarding `O=C([C@@H]1C[C@@H](O)C2(CCC2)CN1)N1CCC(c2noc(C3CC(F)(F)C3)n2)(c2nccs2)CC1` [Example 68], the IC50 on human recombinant CTSC worked out at 2.92 nM; against CTSC in U937 cells, 5.44 nM.

For the molecule `O=C([C@@H]1C[C@@H](O)C2(CCC2)CN1)N1CCC(c2noc(C3CC(F)(F)C3)n2)(C2CC2)CC1` [Example 69], the results for the IC50 at human recombinant CTSC and on CTSC in U937 cells were 1.73 nM and 1.44 nM, respectively.

Turning to `O=C([C@@H]1C[C@@H](O)C2(CCC2)CN1)N1CCC(c2noc(C3CC(F)(F)C3)n2)(c2cccs2)CC1` [Example 70], the IC50 at human recombinant CTSC came to 1.63 nM; at CTSC in U937 cells it was 1.1 nM.

In the case of `Cc1cnn(C2(c3noc(C4CC(F)(F)C4)n3)CCN(C(=O)[C@@H]3C[C@@H](O)C4(CCC4)CN3)CC2)c1` [Example 71], the concentration for half-maximal inhibition (IC50) turned out to be 3.73 nM at human recombinant CTSC and 5.63 nM against CTSC in U937 cells.

Consider `CC(C)C1(c2noc(C34CC(C3)C4)n2)CCN(C(=O)[C@@H]2C[C@@H](O)C3(CCC3)CN2)CC1` [Example 72], for which the figures for the IC50 on human recombinant CTSC and against CTSC in U937 cells were 2.48 nM and 0.31 nM, respectively.

For the molecule `O=C([C@@H]1CC[C@@]2(CCO2)CN1)N1CCC(c2noc(C3CCC(F)(F)CC3)n2)(C(F)(F)F)CC1` [Example 73], the IC50 at human recombinant CTSC turned out to be 3.28 nM; on CTSC in U937 cells it was 4.05 nM.

In the case of `O=C([C@@H]1C[C@@H](O)C2(CCC2)CN1)N1CCC(c2noc(C3CCC(F)(F)CC3)n2)(C2CC2)CC1` [Example 74], the IC50 on human recombinant CTSC came to 0.87 nM; against CTSC in U937 cells, 0.38 nM.

As for `CN(C)C1(c2nc(C3CC(F)(F)C3)no2)CCN(C(=O)[C@@H]2C[C@@H](O)C3(CCC3)CN2)CC1` [Example 75], the IC50 on human recombinant CTSC turned out to be 2.21 nM; at CTSC in U937 cells it was 5.01 nM.

In the case of `CC1(O)CC[C@@H](C(=O)N2CCC(c3noc(C4CC(F)(F)C4)n3)(C(F)(F)F)CC2)NC1` (stereo partly drawn) [Example 76], the IC50 at human recombinant CTSC is 187 nM; against CTSC in U937 cells, more than 111 nM.

Take `CC(=O)N(C)C1(c2nc(C3CC(F)(F)C3)no2)CCN(C(=O)[C@@H]2C[C@@H](O)C3(CCC3)CN2)CC1` [Example 77]: the IC50 on human recombinant CTSC was 3.79 nM; against CTSC in U937 cells, more than 333 nM.

Take `CN(C1(c2nc(C3CC(F)(F)C3)no2)CCN(C(=O)[C@@H]2C[C@@H](O)C3(CCC3)CN2)CC1)S(C)(=O)=O` [Example 78]: the IC50 at human recombinant CTSC was 5.68 nM; against CTSC in U937 cells, 129 nM.

Regarding `O=C([C@@H]1C[C@@H](O)C2(CCC2)CN1)N1CCC(c2ccsc2)(c2noc(C3CC(F)(F)C3)n2)CC1` [Example 79], the IC50 was found to be 2.17 nM at human recombinant CTSC and 0.75 nM against CTSC in U937 cells.

In the case of `CC1(C)CN[C@H](C(=O)N2CCC(c3noc(C4CCC(F)(F)CC4)n3)(C3CC3)CC2)C[C@H]1O` [Example 80, (4-Cyclopropyl-4-(5-(4,4-Difluorocyclohexyl)-1,2,4-oxadiazol-3-yl)piperidin-1-yl)((2S,4R)-4-hydroxy-5,5-dimethylpiperidin-2-yl)methanone], the figures for the IC50 on human recombinant CTSC and on CTSC in U937 cells were 1.86 nM and 0.65 nM, respectively.

Take `O=C([C@@H]1C[C@@H](O)C2(CCC2)CN1)N1CCC(c2cn(C3CCC(F)(F)CC3)nn2)(C(F)(F)F)CC1` [Example 81]: the IC50 came out at 1.31 nM on human recombinant CTSC and 13.7 nM against CTSC in U937 cells.

Regarding `CC(C)C1(c2noc(C3CCC(F)(F)CC3)n2)CCN(C(=O)[C@@H]2C[C@@H](O)C3(CCC3)CN2)CC1` [Example 82], the IC50 at human recombinant CTSC worked out at 0.93 nM; against CTSC in U937 cells, 0.25 nM.

Turning to `Cc1ccc(C2(c3nc(C4CC(F)(F)C4)no3)CCN(C(=O)[C@@H]3C[C@@H](O)C4(CCC4)CN3)CC2)cc1` [Example 83], the IC50 on human recombinant CTSC turned out to be 1.47 nM; at CTSC in U937 cells it was 0.23 nM.
